Experimental data reported in patent publication US20110015371A1 (Vertex Pharmaceuticals Incorporated, priority 1994, published 2011).
pIC50, pKi: −log10 of the molar value. Non-standard residues stand in square brackets, D forms with d. Residues, ends and D or L forms follow the SMILES beside them. Tic = O=C(O)[C@@H]1Cc2ccccc2CN1

Columns and labels:
[1] = tested on: Human Peripheral Blood Mononuclear Cells (PBMC) or Enriched Adherent Mononuclear Cells; assay: Cell assay: IL-1β assay with human PBMC or enriched adherent mononuclear cells; format: cell-based; conditions: LPS-stimulated cells, mature IL-1β in supernatant by ELISA
Source text: IL-1β Assay with a Mixed Population of Human Peripheral Blood Mononuclear Cells (PBMC) or Enriched Adherent Mononuclear Cells
Processing of pre-IL-1S by ICE can be measured in cell culture using a variety of cell sources. Human PBMC obtained from healthy donors provides a mixed population of lymphocyte subtypes and mononuclear cells that produce a spectrum of interleukins and cytokines in response to many classes of physiological stimulators. Adherent mononuclear cells from PBMC provides an enriched source of normal monocytes for selective studies of cytokine production by activated cells.
An initial dilution series of test compound in DMSO or ethanol is prepared, with a subsequent dilution into RPMI-10% FBS media (containing 2 mM L-glutamine, 10 mM HEPES, 50 U and 50 ug/ml pen/strep) respectively to yield drugs at 4× the final test concentration containing 0.4% DMSO or 0.4% ethanol. The final concentration of DMSO is 0.1% for all drug dilutions. A concentration titration which brackets the apparent Ki for a test compound determined in an ICE inhibition assay is generally used for the primary compound screen.
We generally test 5-6 compound dilutions and have performed the cellular component of the assay in duplicate, with duplicate ELISA determinations on each cell culture supernatant.
Buffy coat cells isolated from one pint human blood (yielding 40-45 ml final volume plasma plus cells) are diluted with media to 80 ml and LeukoPREP separation tubes (Becton Dickinson) are each overlaid with 10 ml of cell suspension. After 15 min centrifugation at 1500-1800×g, the plasma/media layer is aspirated and then the mononuclear cell layer is collected with a Pasteur pipette and transferred to a 15 ml conical centrifuge tube (Corning). Media is added to bring the volume to 15 ml, gently mix the cells by inversion and centrifuge at 300×g for 15 min. Resuspend the PBMC pellet in a small volume of media, count cells and adjust to 6×10^6 cells/ml.
For the cellular assay, add 1.0 ml of the cell suspension to each well of a 24-well flat bottom tissue culture plate (Corning), 0.5 ml test compound dilution and 0.5 ml LPS solution (Sigma #L-3012; 20 ng/ml solution prepared in complete RPMI media; final LPS concentration 5 ng/ml). The 0.5 ml additions of test compound and LPS are usually sufficient to mix the contents of the wells. Three control mixtures are run per experiment, with either LPS alone, solvent vehicle control, and/or additional media to adjust the final culture volume to 2.0 ml. The cell cultures are incubated for 16-18 hr at 37° C. in the presence of 5% CO2.
At the end of the incubation period, cells are harvested and transferred to 15 ml conical centrifuge tubes. After centrifugation for 10 min at 200×g, supernatants are harvested and transferred to 1.5 ml Eppendorf tubes. It may be noted that the cell pellet may be utilized for a biochemical evaluation of pre-IL-1S and/or mature IL-1β content in cytosol extracts by western blotting or ELISA with pre-IL-1β specific antisera.
PBMC are isolated and prepared as described above. Media (1.0 ml) is first added to wells followed by 0.5 ml of the PBMC suspension. After a one hour incubation, plates are gently shaken and nonadherent cells aspirated from each well. Wells are then gently washed three times with 1.0 ml of media and final resuspended in 1.0 ml media. The enrichment for adherent cells generally yields 2.5−3.0×10^5 cells per well. The addition of test compounds, LPS, cell incubation conditions and processing of supernatants proceeds as described above.
We have used Quantikine kits (R&D Systems) for measurement of mature IL-1β. Assays are performed according to the manufacturer's directions. Mature IL-1β levels of about 1-3 ng/ml in both PBMC and adherent mononuclear cell positive controls are observed. ELISA assays are performed on 1:5, 1:10 and 1:20 dilutions of supernatants from LPS-positive controls to select the optimal dilution for supernatants in the test panel.

ICE = biological target: T1, ICE (Homo sapiens, UniProt P29466); assay: Enzyme assay with UV-visible substrate (Succinyl-Tyr-Val-Ala-Asp-pNitroanilide); format: biochemical
T1 sequence (P29466 120-297 limits assumed): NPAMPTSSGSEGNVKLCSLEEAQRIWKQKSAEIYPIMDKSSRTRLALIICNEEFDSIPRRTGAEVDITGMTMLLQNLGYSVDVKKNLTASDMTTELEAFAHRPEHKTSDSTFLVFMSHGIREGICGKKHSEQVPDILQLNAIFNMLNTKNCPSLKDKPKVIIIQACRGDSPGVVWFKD
T1 sequence (P29466 317-404 limits assumed): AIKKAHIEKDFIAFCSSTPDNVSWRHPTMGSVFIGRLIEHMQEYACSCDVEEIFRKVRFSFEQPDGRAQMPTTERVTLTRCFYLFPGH
Experimental: 1. Enzyme Assay with UV-Visible Substrate
This assay is run using an Succinyl-Tyr-Val-Ala-Asp-pNitroanilide substrate. Synthesis of analogous substrates is described by L. A. Reiter (Int. J. Peptide Protein Res. 43, 87-96 (1994)). The assay mixture contains:
The visible ICE assay is run in a 96-well microtiter plate. Buffer, ICE and DMSO (if inhibitor is present) are added to the wells in the order listed. The components are left to incubate at room temperature for 15 minutes starting at the time that all components are present in all wells. The microtiter plate reader is set to incubate at 37° C. After the 15 minute incubation, substrate is added directly to the wells and the reaction is monitored by following the release of the chromophore (pNA) at 405-603 nm at 37° C. for 20 minutes. A linear fit of the data is performed and the rate is calculated in mOD/min. DMSO is only present during experiments involving inhibitors, buffer is used to make up the volume to 100 μl in the other experiments.
For determination of enzyme inhibition constants (Ki) or the mode of inhibition (competitive, uncompetitive or noncompetitive), the rate data determined in the enzyme assays at varying inhibitor concentrations are computer-fit to standard enzyme kinetic equations (see I. H. Segel, Enzyme Kinetics, Wiley-Interscience, 1975).

[2] = Homo sapiens, PBMC, Example 4 table
[3] = Homo sapiens, PBMC, Example 6 table

SMILES	pKi (ICE; Example 4 table)	pKi (ICE; Example 6 table)	pIC50 [1, 3]	other results
O=C[C@H](CC(=O)O)NC(=O)[C@@H]1CCCN2C(=O)CC[C@H](NC(=O)CCc3ccccc3)C(=O)N12 [Compound 47a, [3S, (1S,9S)]3-(6,10-Dioxo-octahydro-9-(3-phenylpropionylamino)-6H-pyridazino[1,2-a][1,2]diazepine-1-carboxamido)-4-oxobutanoic acid]	7.72	–	–	pIC50 [1, 2]: 5.68
CC(=O)N[C@@H](Cc1ccc(O)cc1)C(=O)Nc1ccc(Cc2ccccc2)n(CC(=O)N[C@H](C=O)CC(=O)O)c1=O [Compound 54i, 3(S)3-(3-(2-Acetyl-L-tyrosinyl)amino-6-benzyl-1,2-dihydro-2-oxo-1-pyridyl)acetylamino-4-oxobutanoic acid]	7.27	–	–	pIC50 [1, 2]: 5.62
CC(C)[C@H](NC(=O)OCc1ccccc1)C(=O)N[C@@H](C)C(=O)N[C@@H](CC(=O)O)C(=O)c1nc2ccccc2o1 [Compound 63, (3S)N-(N-Benzyloxycarbonyl-(S)-valinyl-(S)-alaninyl)-3-amino-4-(2-benzoxazolyl)-4-oxobutanoate]	6.07	–	–	pIC50 ([1]; Example 4 table): 5.39
COc1cccc2nc(C(=O)[C@H](CC(=O)O)NC(=O)[C@H](C)NC(=O)[C@@H](NC(=O)[C@H](Cc3ccc(O)cc3)NC(C)=O)C(C)C)oc12 [Compound 69a, (3S)N-(N-Acetyl-(S)-tyrosinyl-(S)-valinyl-(S)-alaninyl)-3-amino-4-(2-(7-methoxybenzoxazolyl))-4-oxobutanoate]	7.96	–	–	pIC50 [1, 2]: 6.13
COc1cccc2nc(C(=O)[C@H](CC(=O)O)NC(=O)[C@@H]3C[C@@H](Oc4ccccc4)CN3C(=O)[C@@H](NC(C)=O)C(C)C)oc12 [Compound 86, N-Acetyl-(S)-valinyl-(4-(S)-phenoxy)prolinyl-3(S)-amino-4-(7-methoxybenzoxazol-2-yl)-4-oxo-butanoic acid]	–	6.76	5.40	–
COc1cccc2nc(C(=O)[C@H](CC(=O)O)NC(=O)[C@@H]3C[C@@H](Oc4ccccc4)CN3C(C)=O)oc12 [Compound 87, N-Acetyl(4-(R)-phenoxy)prolinyl-3(S)-amino-4-(7-methoxybenzoxazol-2-yl)-4-oxo-butanoic acid]	–	5.14	4.46	–
O=C[C@H](CC(=O)O)NC(=O)[C@@H]1CCc2ncc(NC(=O)CCc3ccccc3)c(=O)n21 [Compound 98, 4-Oxo-(3S)-{[4-oxo-3-(3-phenyl-propionylamino)-4,6,7,8-tetrahydro-pyrrolo[1,2-a]pyrimidine-(6S)-carbonyl]-amino}-butyric acid]	–	6.27	5.40	–
COc1cccc2nc(C(=O)[C@H](CC(=O)O)NC(=O)[C@@H]3CCc4ncc(NC(=O)CCc5ccccc5)c(=O)n43)oc12 [Compound 102b, 4-(7-methyoxy-benzoxazol-2-yl)-4-oxo-(3S)-{[4-oxo-3-(3-phenyl-propionylamino)-4,6,7,8-tetrahydro-pyrrolo[1,2-a]pyrimidine-(6S)-carbonyl]-amino}-butric acid]	–	6.54	5.76	–
O=C[C@H](CC(=O)O)NC(=O)CN1C(=O)[C@@H](NC(=O)CCc2ccccc2)CNc2ccccc21 [Compound 106a]	–	5.64	4.52	–
COc1cccc2nc(C(=O)[C@H](CC(=O)O)NC(=O)CN3C(=O)[C@@H](NC(=O)CCc4ccccc4)CN(C(=O)CCc4ccccc4)c4ccccc43)oc12 [Compound 108b, 4-(7-Methoxybenzoxazol-2-yl)-4-oxo-3(S)-{2-[2-oxo-5-(3-phenylpropionyl)-3(S)-(3-phenylpropionylamino)-2,3,4,5-tetrahydrobenzo[b][1,4]diazepin-1-yl]-acetylamino}butyric acid]	–	6.40	4.60	–
COc1cccc2nc(C(=O)[C@H](CC(=O)O)NC(=O)[C@H](C)n3cccc(NC(=O)CCc4ccccc4)c3=O)oc12 [Compound 126]	–	6.35	5.82	–
CC(=O)N[C@@H](Cc1ccc(O)cc1)C(=O)N[C@H](C(=O)N1Cc2ccccc2C[C@H]1C(=O)N[C@H](C=O)CC(=O)O)C(C)C [L, N-[2-(N-Acetyl-tyrosinyl-valinyl)-(S)-1,2,3,4-tetrahydroisoquinoline-3-carbonyl]-3-amino-oxobutanoic acid] (Ac-YV[Tic]D-aldehyde)	–	–	–	pKi (ICE; Example 2 table): 7.85

Now from value to compound, other results behind:

pKi (ICE; Example 4 table)	pKi (ICE; Example 6 table)	SMILES	pIC50 [1, 3]	other results
5.92	–	O=C[C@H](CC(=O)O)NC(=O)Cn1c(CCc2ccccc2)ccc(NC(=O)CCc2ccccc2)c1=O [Compound 54c, 3(S)3-(1,2-Dihydro-2-oxo-6-phenethyl-3(3-phenyl-propionyl)amino-1-pyridyl)acetylamino-4-oxobutanoic acid]	–	pIC50 [1, 2]: < 4.72
6.67	–	O=C[C@H](CC(=O)O)NC(=O)Cn1c(Cc2ccccc2)ccc(NC(=O)CCCc2ccccc2)c1=O [Compound 54l, 3(S)3-(6-Benzyl-1,2-dihydro-2-oxo-3-(4-phenylbutyryl)carbonylamino-1-pyridyl)acetylamino-4-oxobutanoic acid]	–	pIC50 ([1]; Example 4 table): 5.15
–	6.38	O=C(O)C[C@H](NC(=O)Cn1c(Cc2ccccc2)ccc(NC(=O)CCc2ccccc2)c1=O)C(=O)COCc1ccccc1Cl [Compound 90, N-2-(6-Benzyl-1,2-dihydro-2-oxo-3-(3-phenylpropionyl)amino-1-pyridyl)acetyl-3-amino-5-(2-chlorobenzyloxy)-4-oxo-pentanoic acid]	5.21	–
–	6.59	O=C(O)C[C@H](NC(=O)Cn1c(Cc2ccccc2)ccc(NC(=O)CCc2ccccc2)c1=O)C(=O)c1ncc(-c2c(Cl)cccc2Cl)s1 [Compound 91]	< 4.60	–
–	5.42	O=C[C@H](CC(=O)O)NC(=O)CN1C(=O)[C@@H](NC(=O)CCc2ccccc2)CN(Cc2ccccc2)c2ccccc21 [Compound 106c, 3(S)-{2-[5-Benzyl-2-oxo-3-(3(S)-phenylpropionylamino)-2,3,4,5-tetrahydrobenzo[b][1, 4]diazepin-1-yl]-acetylamino}-4-oxobutyric acid]	< 4.52	–
–	6.41	O=C(O)C[C@H](NC(=O)Cn1c(Cc2ccccc2)ccc(NC(=O)CCc2ccccc2)c1=O)C(=O)CSCc1ccccc1Cl [Compound 125a]	–	pIC50 ([1]; Example 6 table): < 4.52
